Drawing on patent US7265152B2 (ViroPharma Incorporated, priority 2002, dated 2007), this text covers EC50 and IC50 for 16 compounds.

In assay [1] the test system is HCV replicon (BB7 sequence) in Huh-7-Clone A cells. Put plainly: HCV replicon assay: ELISA of NS5A protein in replicon-containing cells (Inhibition of Viral RNA Replication). It is filed as cell-based. The note with it: read-out: Replicon. In a few lines: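 EC50 taken from an 8-point serially diluted dose curve, with NS5A level as read-out: fixed cells probed with primary monoclonal and HRP-conjugated secondary, TMB developed 30 min, OD 650 nm. Compound exposure 72 h in Huh-7-Clone A replicon cells (BB7 sequence).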
On the technique in general: In antiviral work, replicon cells carry a viral genome segment that copies itself.

The next assay concerns the target T1, HCV NS5B (Hepatitis C virus genotype 1b, UniProt Q9WMX2).
T1 construct: fusion protein, of which the carboxyl terminal 21 amino acids were removed to enhance its solubility; His tag (GSHHHHHH); made in house; host or cells: E. coli
The assay can be described thus: Inhibition of viral RNA-dependent RNA polymerase (RdRp), in vitro biochemical assay. More on the design: species or system HCV genotype 1b virus (BB7). The note with it: read-out: HCV pol-BB7 IC50. In a few lines: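 IC50 values are the concentrations that halve in vitro RNA synthesis by HCV NS5B polymerase. The enzyme was a C-terminally truncated (Δ21), His-tagged genotype 1b (BB7 consensus) protein purified from E. coli.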

Setting [2] is: Hepatitis C virus, HCV replicon, range of EC50.
The mark [3] stands for this setting: HCV NS5B RdRp, BB7, reported as range class.
The mark [4] stands for this setting: HCV NS5B RdRp, BB7, activity class.
Setting [5] is: Hepatitis C virus, HCV replicon assay, ranges of EC50.
The mark [6] stands for this setting: Hepatitis C virus, ranges of EC50 in HCV replicon assay.

pEC50, pIC50: −log10 of the molar value. Where two headings read alike, the source gives them in different places.

For the compound `CC(C)NC(=O)c1c(-c2ccc(F)cc2)oc2cc(NS(C)(=O)=O)c(OC(C)C)cc12` [Example 197, 2-(4-Fluoro-phenyl)-5-isopropoxy-6-methanesulfonylamino-benzofuran-3-carboxylic acid isopropylamide], in assay [1] (setting [2]), the pEC50 was more than 5.00. Moreover, the pIC50 (as a rule, −log10 of the IC50, conventionally taken in molar units) at HCV NS5B (setting [3]) was 4.52 to 5.30.
Consider “2-(4-Fluoro-phenyl)-5-hydroxy-6-[methanesulfonyl-(2-oxo-propyl)-amino]-benzofuran-3-carboxylic acid methylamide [Example 354]”, for which, in assay [1] (HCV replicon assay, ranges of EC50), the pEC50 is more than 5.00. The negative-log IC50 (pIC50) on HCV NS5B (setting [4]) was 5.30 to 6.30.
On to `CNC(=O)c1c(-c2ccc(F)cc2)oc2cc(-c3ccc[nH]3)c(OC(C)C)cc12` [Example 220, 2-(4-Fluoro-phenyl)-5-isopropoxy-6-(1H-pyrrol-2-yl)-benzofuran-3-carboxylic acid methylamide], for which the pEC50 in assay [1] (setting [2]) was more than 5.00. Moreover, the pIC50 at HCV NS5B (setting [3]) was not below 6.30.
Take `CCCOc1cc2c(C(=O)NC)c(-c3ccc(F)cc3)oc2cc1N(C)S(C)(=O)=O` [Example 348, 2-(4-Fluoro-phenyl)-6-(methanesulfonyl-methyl-amino)-5-propoxy-benzofuran-3-carboxylic acid methylamide]: the pEC50 in assay [1] (setting [5]) was more than 6.00. The negative-log IC50 (pIC50) at HCV NS5B (setting [4]) was not below 6.30.
Consider `CNC(=O)c1c(-c2ccc(F)cc2)oc2cc(Cl)c(OC)cc12` [Example 126, 6-Chloro-2-(4-fluoro-phenyl)-5-methoxy-benzofuran-3-carboxylic acid methylamide], for which, in assay [1] (setting [6]), the pEC50 is more than 6.00. The pIC50 on HCV NS5B (HCV NS5B RdRp, BB7 genotype 1b) is not below 6.30.
“4-Chloro-6-[ethyl-(2-methoxy-acetyl)-amino]-2-(4-fluoro-phenyl)-5-methoxy-benzofuran-3-carboxylic acid methylamide [Example 432]”: the pEC50 in assay [1] (HCV replicon assay, ranges of 50% effective concentration (EC50)) is more than 5.00. Also, the pIC50 on HCV NS5B (HCV NS5B polymerase, BB7 (genotype 1b), values given as range classes A-D) is 5.30 to 6.30.
In the case of `CNC(=O)c1c(-c2ccc(F)cc2)oc2cc(N(C)S(C)(=O)=O)c(OCC(C)=O)cc12` [Example 369, 2-(4-Fluoro-phenyl)-6-(methanesulfonyl-methyl-amino)-5-(2-oxo-propoxy)-benzofuran-3-carboxylic acid methylamide], the pEC50 in assay [1] (setting [5]) was more than 6.00. Moreover, the pIC50 at HCV NS5B (setting [4]) was not below 6.30.
In the same order, the values of `CCc1cc2c(C(=O)NC)c(-c3ccc(F)cc3)oc2cc1N(CCOC)S(C)(=O)=O` [Example 335, 5-Ethyl-2-(4-fluoro-phenyl)-6-[methanesulfonyl-(2-methoxy-ethyl)-amino]-benzofuran-3-carboxylic acid methylamide] are more than 6.00 and not below 6.30.
Consider `CNC(=O)c1c(-c2ccccc2)oc2cc(OC)c(OC)cc12` [Example 94, 5,6-Dimethoxy-2-phenyl-benzofuran-3-carboxylic acid methylamide], for which the pEC50 in assay [1] (setting [6]) is more than 6.00. On HCV NS5B (HCV NS5B RdRp, BB7 genotype 1b), the negative-log IC50 (pIC50) was not below 6.30.
Take `CNC(=O)c1c(-c2ccc(Cl)s2)oc2ccc(OC)cc12` [Example 85, 2-(5-Chloro-thiophen-2-yl)-5-methoxy-benzofuran-3-carboxylic acid methylamide]: the pEC50 in assay [1] (Hepatitis C virus, Huh-7-Clone A, NS5A ELISA, 72-hour incubation, ranges of EC50) is more than 5.00. Moreover, the pIC50 on HCV NS5B (purified His-tagged NS5B (BB7), carboxyl terminal 21 amino acids removed) was not below 6.30.
For `CNC(=O)c1c(-c2ccc(F)cc2)oc2cc(N(C)S(C)(=O)=O)c(OC(C)C)cc12` [Example 111, 2-(4-Fluoro-phenyl)-5-isopropoxy-6-(methanesulfonyl-methyl-amino)-benzofuran-3-carboxylic acid methylamide], the pEC50 in assay [1] (setting [6]) was more than 6.00. For the same compound, the negative-log IC50 (pIC50) at HCV NS5B (HCV NS5B RdRp, BB7 genotype 1b) was not below 6.30.
For `CNC(=O)c1c(-c2ccc(F)cc2)oc2cc(S(=O)(=O)N3CCCC3)c(OC(C)C)cc12` [Example 154, 2-(4-Fluoro-phenyl)-5-isopropoxy-6-(pyrrolidine-1-sulfonyl)-benzofuran-3-carboxylic acid methylamide], the pEC50 in assay [1] (setting [6]) is more than 5.00. Further, on HCV NS5B (HCV NS5B RdRp, BB7 genotype 1b), the negative-log IC50 (pIC50) was not below 6.30.
For `CNC(=O)c1c(-c2ccc(F)cc2)oc2cc(C(C)(O)CN)c(OC(C)C)cc12` (centres unmarked) [Example 375, 6-(2-Amino-1-hydroxy-1-methyl-ethyl)-2-(4-fluoro-phenyl)-5-isopropoxy-benzofuran-3-carboxylic acid methylamide], in assay [1] (setting [5]), the pEC50 is more than 4.52. The pIC50 at HCV NS5B (setting [4]) was 5.30 to 6.30.
Regarding `CNC(=O)c1c(-c2ccc(F)cc2)oc2cc(N(CCO)S(C)(=O)=O)c(OC(C)C)cc12` [Example 164, 2-(4-Fluoro-phenyl)-6-[(2-hydroxy-ethyl)-methanesulfonyl-amino]-5-isopropoxy-benzofuran-3-carboxylic acid methylamide], the pEC50 in assay [1] (setting [6]) was more than 5.00. In addition, the pIC50 at HCV NS5B (HCV NS5B RdRp, BB7 genotype 1b) is not below 6.30.
Take `C=CCOc1cc2c(C(=O)NC)c(-c3ccc(F)cc3)oc2cc1N(C)S(C)(=O)=O` [Example 349, 5-Allyloxy-2-(4-fluoro-phenyl)-6-(methanesulfonyl-methyl-amino)-benzofuran-3-carboxylic acid methylamide]: the pEC50 in assay [1] (setting [5]) is more than 6.00. The pIC50 on HCV NS5B (setting [4]) was not below 6.30.
Consider “2-(2,4-Difluoro-phenyl)-5-isopropoxy-benzofuran-3-carboxylic acid methylamide [Example 91]”, for which the pEC50 in assay [1] (ranges of EC50 in HCV replicon assay) was more than 4.52. For the same compound, the pIC50 at HCV NS5B (HCV NS5B RdRp, BB7 genotype 1b) is not below 6.30.
